Entries after “also recorded” stand apart in the source; their conditions may differ.

This test has as its target T1, rpL40 (Saccharomyces cerevisiae, UniProt P0CH08).
T1 construct: endogenous in cells; host or cells: S. cerevisiae diploid strain (BY2n / BY4743 background) co-transformed with the TE-FF and REN reporter plasmids
Put plainly: Biological activity of prospective L40 binders: tropoelastin-firefly / renilla dual luciferase reporter in yeast cells. In kind it is cell-based. To be noted: treatment at 1nM, 10nM, 100nm, 1µM, 10µM and 100µM; replicates n=3; Figs. 3-5. The procedure: The present invention will now be described further in the following examples with reference to the accompanying Figures, nevertheless, without being limited thereto. […] The wildtype (abbreviated WT) is shown as a red dot. […] Replicates n=3, and treatment was made at 1nM, 10nM, 100nm, 1µM, 10µM, and 100µM concentration of compounds.
Wildtype (BY2n) and variant ribosomal protein yeast strains (Kelly DE, Lamb DC, Kelly SL. Genome-wide generation of yeast gene deletion strains. Comp Funct Genomics. 2001;2(4):236-42. doi: 10.1002/cfg.95. PMID: 18628917; PMCID: PMC2447215), that were co-transformed with the tropoelastin-firefly and the renilla protein expression reporter plasmids were used for overnight cultures using single colony inoculation. Cell density (OD600) was determined using a Hitachi U_3000 spectrophotometer. […]
Dual luciferase assay readouts were performed with the GloMax Multi Detection System using the Dual-Luciferase® Reporter Assay System (Promega). For each dual luciferase luminescence measurement, 50 µl of a cell culture (5×10^5 cells) were transferred into a 96-well plate and lysed through addition of 20 µl passive lysis buffer (Promega) for one minute, following the instruction of the supplier. FF luminescence readout was detected upon addition of 50 µl of LAR II substrate, and then REN luminescence signal was recorded after the addition of 50 µl Stop & Glo® substrate. […]

T1 sequence (P0CH08 77-128): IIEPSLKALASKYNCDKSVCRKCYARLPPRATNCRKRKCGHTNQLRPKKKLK

`CCCC(Oc1cccc(C(=N)N)c1)C(=O)Nc1ccc2c(c1)S(=O)(=O)c1ccccc1-2` (stereo not shown) [Compound 22]: the “translation in yeast cells” value is “decreasing translation; also recorded: lowered translation”.

These data come from EP4368729A1, “MOLECULES TARGETING RIBOSOMAL PROTEIN RPL40 FOR USE IN COSMETICS AND THE TREATMENT OF DISEASES OF THE SKIN” (Merck Patent GmbH, priority 2022, dated 2024).
